ChEMBL document CHEMBL3739409, “Bioactive ent-Pimarane and ent-Abietane Diterpenoids from the Whole Plants of Chloranthus henryi” (J Nat Prod, 2015)
Converted amounts (≈) assume the structure as drawn.

What was measured:
Candida albicans [1] = experiment: Antifungal activity against Candida albicans SC5314 assessed as inhibition of yeast to hyphae conversion after 4 hrs by microscopic analysis; type: functional, organism-based; conditions: SC5314, 4 h
Candida albicans [2] = experiment: Antifungal activity against Candida albicans SC5314 by broth microdilution method; type: functional

Row | Compound | IC50 (Candida albicans [1]) [µM] | MIC50 (Candida albicans [2]) [µM]
1 | C=CCc1ccc(O)c(-c2cc(CC=C)ccc2O)c1 [MAGNOLOL] | 7.5 | 
2 | CC(C)c1ccc2c(c1)C(=O)CC1C(C)(C)[C@@H](O)CC[C@]21C (stereo partly drawn) | 97.3 | 427 (≈ 128 µg/mL)
3 | CC(C)c1ccc2c(c1)[C@H](O)CC1C(C)(C)[C@@H](O)CC[C@]21C (stereo partly drawn) | 739 | 
4 | OC(Cn1cncn1)(Cn1cncn1)c1ccc(F)cc1F [FLUCONAZOLE] |  | 1.6 (≈ 0.49 µg/mL)
5 | C=C[C@]1(C)C=C2[C@@H](CC1)[C@]1(C)CC[C@@H](O)C(C)(C)[C@H]1C[C@@H]2O | 399 | 
6 | CO[C@@]1(C(C)C)C=C2C(=O)C[C@@H]3C(C)(C)[C@H](O)CC[C@@]3(C)[C@@H]2C[C@H]1O | 334 | 731 (≈ 256 µg/mL)
